The values below are quoted from earlier work in patent US20050244821A1, “Method of identification and quantification of biological molecules and apparatus therefore” (priority 2000, published 2005).

This series concerns the target D2.3 antibody. The conditions noted are these: hapten and antibody free in solution; competitive ELISA, further by a fluorescence assay; read-out: affinity constant. In general terms: In an ELISA, binding on a coated surface is turned into a signal by an enzyme label.

Consider “p-nitrobenzyl phosphonate N-glycylglutatarate [hapten 23.7]”, for which the Kd was 4 nM.
